Reference: ChEMBL document CHEMBL6092156, “Design and development of a series of 4-(piperazin-1-yl)pyrimidines as irreversible menin inhibitors” (Eur J Med Chem, 2024)

Assays:
REH = assay: Antiproliferative activity against human menin-insensitive REH cells assessed as inhibition of cell growth incubated for 7 days by MTS assay; format: functional, cell-based; conditions: 168 h
MV4-11 [1] = assay: Antiproliferative activity against human menin-sensitive MV4-11 cells assessed as inhibition of cell growth incubated for 7 days by MTS assay; format: functional, cell-based; conditions: MV4-11, 168 h
[2] = target: Menin/Histone-lysine N-methyltransferase MLL (Homo sapiens, UniProt O00255); assay: Inhibition of menin (unknown origin)/N-terminal FITC-labeled MLL1 peptide (unknown origin) interaction incubated for 30 min by fluorescence polarization assay; format: protein assay
MV4-11 [3] = assay: Antiproliferative activity against human MV4-11 cells assessed as cell growth inhibition after 4 days; format: functional, cell-based; conditions: MV4-11, 96 h
[4] = Cytotoxicity against human PBMC cells assessed as cell viability incubated for 7 days by MTS assay; format: toxicity, cell-based
[5] = Suppression of MEN1 gene transcription in human MV4-11 cells assessed as protein synthesis by measuring fold change at 20 nM incubated for 16 hrs relative to control; format: functional
[6] = Suppression of MEN1 gene transcription in human MV4-11 cells assessed as protein synthesis by measuring fold change at 50 ug/ml incubated for 48 hrs relative to control; format: functional; conditions: dose 50 µg/ml
[7] = Suppression of MEN1 gene transcription in human MV4-11 cells assessed as protein synthesis by measuring fold change at 50 ug/ml incubated for 36 hrs relative to control; format: functional; conditions: dose 50 µg/ml
[8] = Suppression of MEN1 gene transcription in human MV4-11 cells assessed as protein synthesis by measuring fold change at 50 ug/ml incubated for 12 hrs relative to control; format: functional; conditions: dose 50 µg/ml
[9] = Suppression of MEN1 gene transcription in human MV4-11 cells assessed as protein synthesis by measuring fold change at 50 ug/ml incubated for 24 hrs relative to control; format: functional; conditions: dose 50 µg/ml

Menin/Histone-lysine N-methyltransferase MLL, sequence (O00255 whole entry): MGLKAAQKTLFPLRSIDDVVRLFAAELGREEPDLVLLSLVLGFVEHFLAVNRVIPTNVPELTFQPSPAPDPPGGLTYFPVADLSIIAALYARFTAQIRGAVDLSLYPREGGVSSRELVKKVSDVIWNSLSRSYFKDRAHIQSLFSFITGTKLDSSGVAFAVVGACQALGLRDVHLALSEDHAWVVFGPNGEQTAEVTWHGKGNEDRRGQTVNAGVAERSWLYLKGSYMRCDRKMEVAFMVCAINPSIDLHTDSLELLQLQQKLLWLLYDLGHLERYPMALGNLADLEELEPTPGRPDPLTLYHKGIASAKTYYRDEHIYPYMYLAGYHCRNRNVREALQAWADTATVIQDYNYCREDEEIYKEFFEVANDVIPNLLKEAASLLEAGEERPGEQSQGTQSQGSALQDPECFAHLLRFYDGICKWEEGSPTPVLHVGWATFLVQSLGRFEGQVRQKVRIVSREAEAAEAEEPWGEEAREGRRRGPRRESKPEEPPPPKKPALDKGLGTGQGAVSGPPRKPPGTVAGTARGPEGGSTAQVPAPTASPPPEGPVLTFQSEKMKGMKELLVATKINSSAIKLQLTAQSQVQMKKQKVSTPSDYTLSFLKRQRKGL
Menin/Histone-lysine N-methyltransferase MLL, sequence (Q03164 1-2718 partner limits assumed): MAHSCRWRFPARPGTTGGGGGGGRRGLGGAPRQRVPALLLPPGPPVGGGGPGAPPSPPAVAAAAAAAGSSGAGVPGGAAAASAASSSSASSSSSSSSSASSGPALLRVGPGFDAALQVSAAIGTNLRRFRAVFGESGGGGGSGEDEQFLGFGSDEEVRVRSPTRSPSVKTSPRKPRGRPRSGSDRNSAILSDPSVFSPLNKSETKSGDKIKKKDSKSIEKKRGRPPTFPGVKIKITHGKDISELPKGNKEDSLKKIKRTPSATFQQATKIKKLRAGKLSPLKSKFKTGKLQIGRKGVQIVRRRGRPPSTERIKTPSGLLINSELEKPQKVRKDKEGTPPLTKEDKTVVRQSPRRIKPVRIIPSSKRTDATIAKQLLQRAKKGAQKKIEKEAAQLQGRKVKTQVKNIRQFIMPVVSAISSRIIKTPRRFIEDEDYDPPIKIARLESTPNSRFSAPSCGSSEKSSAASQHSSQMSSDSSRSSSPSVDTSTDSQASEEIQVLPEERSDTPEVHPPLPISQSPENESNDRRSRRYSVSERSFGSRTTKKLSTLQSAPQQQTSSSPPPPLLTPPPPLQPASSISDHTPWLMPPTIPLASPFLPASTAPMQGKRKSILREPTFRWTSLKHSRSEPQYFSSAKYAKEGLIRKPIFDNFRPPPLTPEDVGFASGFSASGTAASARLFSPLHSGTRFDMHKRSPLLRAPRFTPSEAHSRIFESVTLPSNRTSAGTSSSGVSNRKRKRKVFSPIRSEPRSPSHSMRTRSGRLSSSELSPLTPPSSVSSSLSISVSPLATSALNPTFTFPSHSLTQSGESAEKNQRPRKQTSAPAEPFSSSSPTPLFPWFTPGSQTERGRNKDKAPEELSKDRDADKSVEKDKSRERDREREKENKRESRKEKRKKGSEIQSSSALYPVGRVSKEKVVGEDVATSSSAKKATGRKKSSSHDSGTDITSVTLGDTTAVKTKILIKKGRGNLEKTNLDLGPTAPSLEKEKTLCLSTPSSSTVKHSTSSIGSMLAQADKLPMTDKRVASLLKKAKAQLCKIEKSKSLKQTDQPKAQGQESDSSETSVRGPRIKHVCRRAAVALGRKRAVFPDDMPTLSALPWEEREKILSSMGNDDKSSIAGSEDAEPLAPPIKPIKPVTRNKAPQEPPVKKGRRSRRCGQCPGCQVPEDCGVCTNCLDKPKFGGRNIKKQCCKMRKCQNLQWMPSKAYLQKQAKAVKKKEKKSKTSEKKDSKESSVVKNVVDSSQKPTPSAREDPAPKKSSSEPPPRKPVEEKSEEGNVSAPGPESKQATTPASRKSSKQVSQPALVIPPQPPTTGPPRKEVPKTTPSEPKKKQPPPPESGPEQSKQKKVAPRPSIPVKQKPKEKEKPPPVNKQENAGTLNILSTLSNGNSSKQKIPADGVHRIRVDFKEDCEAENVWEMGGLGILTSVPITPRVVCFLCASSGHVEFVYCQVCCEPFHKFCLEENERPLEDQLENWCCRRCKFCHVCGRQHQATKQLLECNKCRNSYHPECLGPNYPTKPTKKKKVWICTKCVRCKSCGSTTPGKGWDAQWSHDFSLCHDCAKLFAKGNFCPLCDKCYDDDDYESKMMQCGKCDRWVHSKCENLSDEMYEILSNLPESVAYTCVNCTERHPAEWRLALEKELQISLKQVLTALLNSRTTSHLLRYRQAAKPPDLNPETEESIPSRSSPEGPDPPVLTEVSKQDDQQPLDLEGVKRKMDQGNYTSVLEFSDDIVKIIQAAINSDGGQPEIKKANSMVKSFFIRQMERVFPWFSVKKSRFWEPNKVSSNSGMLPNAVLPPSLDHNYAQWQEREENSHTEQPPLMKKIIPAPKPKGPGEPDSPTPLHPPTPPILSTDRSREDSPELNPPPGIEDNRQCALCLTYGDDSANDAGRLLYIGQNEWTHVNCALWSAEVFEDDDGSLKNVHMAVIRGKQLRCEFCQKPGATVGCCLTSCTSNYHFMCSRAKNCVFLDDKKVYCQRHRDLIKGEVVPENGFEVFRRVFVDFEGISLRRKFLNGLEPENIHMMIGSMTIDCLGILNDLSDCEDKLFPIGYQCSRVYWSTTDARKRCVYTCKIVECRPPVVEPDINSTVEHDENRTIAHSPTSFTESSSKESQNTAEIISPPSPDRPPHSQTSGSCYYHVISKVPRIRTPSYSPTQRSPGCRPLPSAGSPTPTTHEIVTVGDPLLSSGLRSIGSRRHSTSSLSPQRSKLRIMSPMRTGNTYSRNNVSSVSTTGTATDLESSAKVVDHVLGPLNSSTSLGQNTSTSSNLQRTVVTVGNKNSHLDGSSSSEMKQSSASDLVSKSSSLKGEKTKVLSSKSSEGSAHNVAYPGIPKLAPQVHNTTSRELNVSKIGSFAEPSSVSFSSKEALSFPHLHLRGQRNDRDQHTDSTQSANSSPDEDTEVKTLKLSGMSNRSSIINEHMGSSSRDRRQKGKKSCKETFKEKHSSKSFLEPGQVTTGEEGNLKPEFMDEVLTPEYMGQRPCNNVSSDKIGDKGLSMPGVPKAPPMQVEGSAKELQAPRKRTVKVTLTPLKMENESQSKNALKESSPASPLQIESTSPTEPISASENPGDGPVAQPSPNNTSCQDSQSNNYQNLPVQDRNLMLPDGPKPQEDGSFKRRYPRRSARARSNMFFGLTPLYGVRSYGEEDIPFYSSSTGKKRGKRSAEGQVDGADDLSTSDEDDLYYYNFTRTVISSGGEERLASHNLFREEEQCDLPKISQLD
Menin/Histone-lysine N-methyltransferase MLL, sequence (Q03164 2719-3969 partner limits assumed): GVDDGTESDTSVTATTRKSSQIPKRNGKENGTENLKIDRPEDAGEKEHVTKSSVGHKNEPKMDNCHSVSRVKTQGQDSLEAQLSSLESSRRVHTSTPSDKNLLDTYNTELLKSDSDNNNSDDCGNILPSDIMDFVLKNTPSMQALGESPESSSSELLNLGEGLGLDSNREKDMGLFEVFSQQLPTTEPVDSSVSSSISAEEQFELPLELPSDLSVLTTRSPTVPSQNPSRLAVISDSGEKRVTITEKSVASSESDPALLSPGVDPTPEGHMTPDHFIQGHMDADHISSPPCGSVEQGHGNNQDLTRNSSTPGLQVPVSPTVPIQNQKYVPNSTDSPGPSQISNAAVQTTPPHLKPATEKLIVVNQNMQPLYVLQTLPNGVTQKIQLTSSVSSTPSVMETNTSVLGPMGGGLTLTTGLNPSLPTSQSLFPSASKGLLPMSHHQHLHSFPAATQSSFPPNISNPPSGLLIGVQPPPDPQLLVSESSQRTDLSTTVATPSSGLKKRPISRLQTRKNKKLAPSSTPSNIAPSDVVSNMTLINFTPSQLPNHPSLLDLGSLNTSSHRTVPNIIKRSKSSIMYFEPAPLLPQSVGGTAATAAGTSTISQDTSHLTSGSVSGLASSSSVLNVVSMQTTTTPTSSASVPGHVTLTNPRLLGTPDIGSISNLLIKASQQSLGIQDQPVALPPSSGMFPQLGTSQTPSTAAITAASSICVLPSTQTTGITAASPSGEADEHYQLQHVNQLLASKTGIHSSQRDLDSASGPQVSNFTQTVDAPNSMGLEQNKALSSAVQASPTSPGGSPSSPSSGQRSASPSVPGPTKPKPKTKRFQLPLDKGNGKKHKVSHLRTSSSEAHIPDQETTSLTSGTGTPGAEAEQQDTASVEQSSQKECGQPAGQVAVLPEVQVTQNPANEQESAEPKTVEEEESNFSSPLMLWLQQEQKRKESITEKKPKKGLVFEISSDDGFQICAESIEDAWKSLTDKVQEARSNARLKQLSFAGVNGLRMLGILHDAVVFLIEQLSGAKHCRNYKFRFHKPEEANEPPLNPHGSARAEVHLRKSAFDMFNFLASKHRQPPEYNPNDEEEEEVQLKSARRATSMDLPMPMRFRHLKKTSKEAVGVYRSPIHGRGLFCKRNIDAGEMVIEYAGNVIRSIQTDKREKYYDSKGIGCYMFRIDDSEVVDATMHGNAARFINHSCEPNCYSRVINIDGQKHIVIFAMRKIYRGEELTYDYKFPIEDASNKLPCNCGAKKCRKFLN

For CCC(=O)NC1CN(S(=O)(=O)c2ccc(N3CC(CN4CCN(c5ncncc5Nc5ccc(F)cc5C(=O)N(CC)C(C)C)CC4)C3)cc2)C1, the IC50 (REH) was greater than 20000 nM, the IC50 (MV4-11 [1]) was 875 nM and the IC50 [2] was 34.2 nM.
In the case of C=CC(=O)N[C@@H]1CCN(S(=O)(=O)c2ccc(N3CC(CN4CCN(c5ncncc5Nc5ccc(F)cc5C(=O)N(CC)C(C)C)CC4)C3)cc2)C1, the IC50 (REH) is reported as greater than 20000 nM, the IC50 (MV4-11 [1]) is reported as 1260 nM and the IC50 [2] is reported as 31.8 nM.
Work on CCC(=O)N[C@@H]1CCN(S(=O)(=O)c2ccc(N3CC(CN4CCN(c5ncncc5Nc5ccc(F)cc5C(=O)N(CC)C(C)C)CC4)C3)cc2)C1 yielded an IC50 (REH) greater than 20000 nM, an IC50 (MV4-11 [1]) of 1470 nM and an IC50 [2] of 52.2 nM.
With COC(=O)N[C@H]1CCC[C@@H]1[C@](C#N)(c1cccc(F)c1)C1CCN(CC2CN(c3ccc(S(=O)(=O)C4CN(C(=O)/C=C/CN(C)C)C4)cc3)C2)CC1 the IC50 (MV4-11 [3]) was 2.7 nM.
Molecule CCC(=O)N1CC(S(=O)(=O)c2ccc(N3CC(CN4CCN(c5ncncc5Nc5ccc(F)cc5C(=O)N(C(C)C)C(C)C)CC4)C3)cc2)C1 has an IC50 (REH) greater than 20000 nM, an IC50 (MV4-11 [1]) of 210 nM and an IC50 [2] of 32.8 nM.
For CCC(=O)Nc1cccc(N2CC(CN3CCN(c4ncncc4Nc4ccc(F)cc4C(=O)N(C(C)C)C(C)C)CC3)C2)c1, the IC50 (REH) was greater than 20000 nM, the IC50 (MV4-11 [1]) was 1510 nM and the IC50 [2] was 95.6 nM.
In the case of C=CC(=O)N1CC(S(=O)(=O)c2ccc(N3CC(CN4CCN(c5ncncc5Nc5ccc(F)cc5C(=O)N(C(C)C)C(C)C)CC4)C3)cc2)C1, the IC50 (REH) is reported as 4810 nM, the IC50 (MV4-11 [1]) is reported as 220 nM and the IC50 [2] is reported as 33.9 nM.
In the case of C=CC(=O)Nc1cccc(N2CC(CN3CCN(c4ncncc4Nc4ccc(F)cc4C(=O)N(C(C)C)C(C)C)CC3)C2)c1, the IC50 (REH) is reported as 4420 nM, the IC50 (MV4-11 [1]) is reported as 1330 nM and the IC50 [2] is reported as 97.3 nM.
Molecule CCN(C(=O)c1cc(F)ccc1Nc1cncnc1N1CCN(CC2CN(c3ccc(S(N)(=O)=O)cc3)C2)CC1)C(C)C has an IC50 [2] of 21.6 nM.
Work on CCN(C(=O)c1cc(F)ccc1Nc1cncnc1N1CCN(CC2CN(c3ccc(NS(C)(=O)=O)cc3)C2)CC1)C(C)C yielded an IC50 [2] of 27.3 nM.
CCN(C(=O)c1cc(F)ccc1Nc1cncnc1N1CCN(CC2CN(c3ccc(S(=O)(=O)C4CN(C(=O)/C=C/CN5CCCC5)C4)cc3)C2)CC1)C(C)C showed an IC50 (REH) of 6980 nM, an IC50 (MV4-11 [1]) of 32 nM and an IC50 [2] of 16.3 nM.
CCN(C(=O)c1cc(F)ccc1Nc1cncnc1N1CCN(CC2CN(c3ccc(F)cc3)C2)CC1)C(C)C gave an IC50 [2] of 276 nM.
In the case of CCN(C(=O)c1cc(F)ccc1Nc1cncnc1N1CCN(CC2CN(c3ccc(S(=O)(=O)C4CN(C(=O)/C=C/CN5CCCCC5)C4)cc3)C2)CC1)C(C)C, the IC50 (REH) is reported as 7880 nM, the IC50 (MV4-11 [1]) is reported as 30 nM and the IC50 [2] is reported as 16.6 nM.
Molecule CCN(C(=O)c1cc(F)ccc1Oc1cncnc1N1CC2(CCN(C[C@H]3CC[C@H](NS(=O)(=O)CC)CC3)CC2)C1)C(C)C [REVUMENIB] has an IC50 at 7 days [4] greater than 3000 nM and an IC50 [2] of 15.5 nM.
With CCN(C(=O)c1cc(F)ccc1Nc1cncnc1N1CCN(CC2CN(c3ccc(S(=O)(=O)N4CC(NC(=O)/C=C/CN(C)C)C4)cc3)C2)CC1)C(C)C the IC50 (REH) was greater than 20000 nM, the IC50 (MV4-11 [1]) was 281 nM and the IC50 [2] was 12.3 nM.
CCN(C(=O)c1cc(F)ccc1Nc1cncnc1N1CCN(CC2CN(c3ccc(S(=O)(=O)N4CC[C@H](NC(=O)/C=C/CN(C)C)C4)cc3)C2)CC1)C(C)C showed an IC50 (REH) greater than 20000 nM, an IC50 (MV4-11 [1]) of 644 nM and an IC50 [2] of 16.7 nM.
CCN(C(=O)c1cc(F)ccc1Nc1cncnc1N1CCN(CC2CN(c3ccc(C#N)cc3)C2)CC1)C(C)C showed an IC50 [2] of 38.8 nM.
For C=CC(=O)N[C@H]1CCN(S(=O)(=O)c2ccc(N3CC(CN4CCN(c5ncncc5Nc5ccc(F)cc5C(=O)N(CC)C(C)C)CC4)C3)cc2)C1, the IC50 (REH) was greater than 20000 nM, the IC50 (MV4-11 [1]) was 607 nM and the IC50 [2] was 51.4 nM.
CCN(C(=O)c1cc(F)ccc1Nc1cncnc1N1CCN(CC2CN(c3ccc(NC(=O)/C=C/CN(C)C)cc3)C2)CC1)C(C)C showed an IC50 (REH) greater than 20000 nM, an IC50 (MV4-11 [1]) of 1100 nM and an IC50 [2] of 61.9 nM.
For CCC(=O)Nc1ccc(N2CC(CN3CCN(c4ncncc4Nc4ccc(F)cc4C(=O)N(C(C)C)C(C)C)CC3)C2)cc1, the IC50 (REH) was 8260 nM, the IC50 (MV4-11 [1]) was 770 nM and the IC50 [2] was 48.3 nM.
In the case of CCN(C(=O)c1cc(F)ccc1Oc1cncnc1N1CCN(CC2CN(c3ccc(S(=O)(=O)C4CN(C(=O)/C=C/CN(C)C)C4)cc3)C2)CC1)C(C)C, the IC50 (REH) is reported as 11400 nM, the IC50 (MV4-11 [1]) is reported as 40 nM and the IC50 [2] is reported as 14.5 nM.
Work on CCN(C(=O)c1cc(F)ccc1Nc1cncnc1N1CCN(CC2CN(c3ccc([N+](=O)[O-])cc3)C2)CC1)C(C)C yielded an IC50 [2] of 50.2 nM.
CCN(C(=O)c1cc(F)ccc1Nc1cncnc1N1C[C@@H](C)N(CC2CN(c3ccc(S(=O)(=O)C4CN(C(=O)/C=C/CN(C)C)C4)cc3)C2)C[C@@H]1C)C(C)C gave an IC50 (REH) of 18000 nM, an IC50 (MV4-11 [1]) of 120 nM and an IC50 [2] of 22.3 nM.
Molecule CCN(C(=O)c1cc(F)ccc1Nc1cncnc1N1CCN(CC2CN(c3ccc(S(=O)(=O)N4CC[C@@H](NC(=O)/C=C/CN(C)C)C4)cc3)C2)CC1)C(C)C has an IC50 (REH) greater than 20000 nM, an IC50 (MV4-11 [1]) of 614 nM and an IC50 [2] of 11.3 nM.
For CC(C)C[C@H](NC(=O)[C@H](CCc1ccccc1)NC(=O)CN1CCOCC1)C(=O)N[C@@H](Cc1ccccc1)C(=O)N[C@@H](CC(C)C)C(=O)[C@@]1(C)CO1 [CARFILZOMIB], the “fold change (FC)” value [5] was 1.16.
With CCC(=O)c1ccc(N2CC(CN3CCN(c4ncncc4Nc4ccc(F)cc4C(=O)N(CC)C(C)C)CC3)C2)cc1 the IC50 [2] was 49.7 nM.
For CCN(C(=O)c1cc(F)ccc1Nc1cncnc1N1CCN(C(C)C2CN(c3ccc(S(=O)(=O)C4CN(C(=O)/C=C/CN(C)C)C4)cc3)C2)CC1)C(C)C (stereo not given), the IC50 (REH) was 7900 nM, the IC50 (MV4-11 [1]) was 140 nM and the IC50 [2] was 18.4 nM.
With CCN(C(=O)c1cc(F)ccc1Nc1cncnc1N1CCN(CC2CN(c3ccc(C(F)(F)F)cc3)C2)CC1)C(C)C the IC50 [2] was 186 nM.
CCC(=O)N[C@H]1CCN(S(=O)(=O)c2ccc(N3CC(CN4CCN(c5ncncc5Nc5ccc(F)cc5C(=O)N(CC)C(C)C)CC4)C3)cc2)C1 showed an IC50 (REH) greater than 20000 nM, an IC50 (MV4-11 [1]) of 2240 nM and an IC50 [2] of 61.3 nM.
With C[C@@H]1C[C@@H]([C@H](O)CC2CC(=O)NC(=O)C2)C(=O)[C@@H](C)C1 [CYCLOHEXIMIDE] the “fold change (FC)” value [6] was 0.007, the “fold change (FC)” value [7] was 0.007 and the “fold change (FC)” value [8] was 0.55. The “fold change (FC)” value [9] was 0.41.
CCN(C(=O)c1cc(F)ccc1Nc1cncnc1N1CCN(CC2CN(c3ccc(S(=O)(=O)C4CN(C(=O)/C=C/CN(C)C)C4)cc3)C2)CC1)C(C)C showed an IC50 (REH) of 1930 nM, an IC50 (MV4-11 [1]) of 30 nM and an IC50 [2] of 14.2 nM.
C=CC(=O)Nc1ccc(N2CC(CN3CCN(c4ncncc4Nc4ccc(F)cc4C(=O)N(C(C)C)C(C)C)CC3)C2)cc1 showed an IC50 (REH) of 4280 nM, an IC50 (MV4-11 [1]) of 530 nM and an IC50 [2] of 34 nM.
With CCN(C(=O)c1cc(F)ccc1Nc1cncnc1N1CCN(CC2CN(c3ccc(S(C)(=O)=O)cc3)C2)CC1)C(C)C the IC50 [2] was 66.5 nM.
CCN(C(=O)c1cc(F)ccc1Nc1cncnc1N1CCN(C(=O)C2CN(c3ccc(S(=O)(=O)C4CN(C(=O)/C=C/CN(C)C)C4)cc3)C2)CC1)C(C)C showed an IC50 (REH) greater than 20000 nM, an IC50 (MV4-11 [1]) of 50 nM and an IC50 [2] of 12.9 nM.
For C=CC(=O)NC1CN(S(=O)(=O)c2ccc(N3CC(CN4CCN(c5ncncc5Nc5ccc(F)cc5C(=O)N(CC)C(C)C)CC4)C3)cc2)C1, the IC50 (REH) was greater than 20000 nM, the IC50 (MV4-11 [1]) was 283 nM and the IC50 [2] was 22.9 nM.
